13 molecules from PubChem BioAssay (NCI) can be followed below.

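Test compounds were applied to cells in 96-well plates for 48 hours at 5 doses. At the GI50, growth is halved. At the TGI there is no net growth.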 Bounds are passed on as bounds.

Some test systems named below: ACHN renal; SF-268 CNS; HS 578T breast; SN12C renal; A549 NSCLC; MOLT-4 leukemia; SK-MEL-5 melanoma; RXF 393 renal; RPMI-8226 leukemia; HCC-2998 colon.
Assay in all cases: NCI tumour cell line growth inhibition, 48 h

In the case of `COc1ccc(C2c3cc4c(c(OC)c3CC3OCC(=O)C32)OCO4)cc1OC` (centres undefined), the TGI is 71.7 µM in the assay on ACHN renal; greater than 100 µM with SF-268 CNS; 46.4 µM with HS 578T breast; greater than 100 µM in the assay with SN12C renal; greater than 100 µM in the assay on A549 NSCLC. The GI50 with SF-268 CNS and in the assay on A549 NSCLC was less than 0.01 µM in each case.

Turning to `COc1ccc(/C=c2\sc3nnc(CCC(=O)Nc4cccc(C(F)(F)F)c4)n3c2=O)cc1`, the TGI in the assay with ACHN renal is greater than 100 µM; in the assay with SF-268 CNS it was greater than 100 µM; in the assay on MOLT-4 leukemia, greater than 27.4 µM; in the assay on SK-MEL-5 melanoma it was greater than 100 µM; in the assay with RXF 393 renal it was 98.5 µM; in the assay on RPMI-8226 leukemia it was greater than 95.5 µM. For the same molecule, the TGI in the assay with SN12C renal, in the assay with A549 NSCLC and in the assay on HCC-2998 colon was greater than 100 µM in each case.

For `CN=c1ss/c(=N\C(=S)N(C)C)n1C1CCCCC1`, the TGI in the assay with ACHN renal is greater than 31.6 µM; in the assay on SF-268 CNS, greater than 31.6 µM; with MOLT-4 leukemia, greater than 31.6 µM; in the assay on SK-MEL-5 melanoma, greater than 31.6 µM; in the assay with RXF 393 renal, greater than 31.6 µM; with RPMI-8226 leukemia, greater than 100 µM. The TGI with SN12C renal, with A549 NSCLC and with HCC-2998 colon was greater than 31.6 µM in each case.

Regarding `COC(=O)[C@H]1CC(=O)C=C2CCCC21` (some centres undefined), the TGI in the assay with SF-268 CNS, with MOLT-4 leukemia, with SK-MEL-5 melanoma, in the assay on RXF 393 renal, with RPMI-8226 leukemia and in the assay on SN12C renal was greater than 100 µM throughout. Also, the TGI in the assay on A549 NSCLC and in the assay on HCC-2998 colon was greater than 100 µM throughout.

For the molecule `O=C(O)CN(CC(=O)O)c1ccccc1`, the TGI in the assay on ACHN renal, in the assay on SF-268 CNS, in the assay on HS 578T breast, in the assay with MOLT-4 leukemia, in the assay on SK-MEL-5 melanoma and in the assay with RXF 393 renal was greater than 100 µM in each case. The TGI is 92.1 µM in the assay with RPMI-8226 leukemia, greater than 100 µM with SN12C renal and greater than 100 µM in the assay with A549 NSCLC.

As for `CCOP(=O)(CCN1CCN(CCCCCOc2cc3c(cc2OC)C(=O)N2CCC[C@H]2C=N3)CC1)OCC`, the GI50 in the assay on ACHN renal is 18.5 µM; in the assay on SF-268 CNS it was 3.53 µM; in the assay with HS 578T breast, 3.54 µM; in the assay on MOLT-4 leukemia, 2.16 µM; in the assay on SK-MEL-5 melanoma, 3.62 µM; with RXF 393 renal it was 1.77 µM. Further, the GI50 in the assay on SN12C renal is 5.18 µM; in the assay with A549 NSCLC, 8.55 µM; in the assay with HCC-2998 colon, 17.3 µM. The TGI with ACHN renal stood at 50.4 µM; in the assay on SF-268 CNS, 49.6 µM; with HS 578T breast, 31.1 µM; in the assay on MOLT-4 leukemia, 6.37 µM; in the assay with SK-MEL-5 melanoma it was 23.8 µM; with RXF 393 renal it was 6.59 µM. Besides, the values for the TGI in the assay with SN12C renal, in the assay on A549 NSCLC and in the assay with HCC-2998 colon were greater than 100 µM, 34.8 µM and 38.1 µM, respectively.

On to `CC(N)CN.CC(N)CN.[Cl-].[O]=[Os+2]=[O]` (centres undefined), for which the GI50 is 77.3 µM in the assay with SF-268 CNS; 97.2 µM with SK-MEL-5 melanoma; greater than 100 µM with RXF 393 renal; 40.3 µM in the assay on RPMI-8226 leukemia; greater than 100 µM in the assay on SN12C renal; greater than 100 µM with A549 NSCLC. In the assay with HCC-2998 colon, the GI50 was greater than 100 µM. Besides, the TGI with SF-268 CNS, with SK-MEL-5 melanoma, in the assay with RXF 393 renal, in the assay with RPMI-8226 leukemia, with SN12C renal and with A549 NSCLC was greater than 100 µM in each case. The molecule also displayed a TGI with HCC-2998 colon greater than 100 µM.

For `CCOC(=O)c1c(C(F)(F)F)n([O-])c2ccc(Cl)cc2[n+]1=O`, the GI50 with ACHN renal was 1.69 µM; in the assay on SF-268 CNS it was 2.02 µM; in the assay on HS 578T breast, 2.17 µM; with MOLT-4 leukemia it was 2.32 µM; in the assay with SK-MEL-5 melanoma, 1.51 µM; in the assay with RXF 393 renal it was 1.82 µM. The values for the GI50 in the assay with RPMI-8226 leukemia, in the assay with SN12C renal and with A549 NSCLC were 2.07 µM, 2.23 µM and 4.14 µM, respectively. Further, the TGI in the assay on ACHN renal stood at 3.14 µM; with SF-268 CNS, 3.95 µM; with HS 578T breast it was 5.13 µM; in the assay with MOLT-4 leukemia, 5.18 µM; in the assay with SK-MEL-5 melanoma, 2.96 µM; with RXF 393 renal it was 3.77 µM. For the same molecule, the TGI came to 5.13 µM in the assay on RPMI-8226 leukemia, 10.3 µM with SN12C renal and 17.1 µM in the assay with A549 NSCLC.

Regarding `COC(=O)CSc1n[nH]c(-c2ccccc2)n1`, the TGI with ACHN renal was greater than 100 µM; with SF-268 CNS, greater than 100 µM; with MOLT-4 leukemia, 43.2 µM; with SK-MEL-5 melanoma it was greater than 100 µM; in the assay with RPMI-8226 leukemia, greater than 100 µM; with SN12C renal, greater than 100 µM. This molecule registered a TGI in the assay with A549 NSCLC greater than 100 µM.

`CC1(C)C(=O)CCC(=O)C(C)(C)C2=CC=C(O2)C(C)(C)C(=O)CCC(=O)C(C)(C)C2=CC=C1O2`: the TGI with ACHN renal, in the assay on SF-268 CNS, in the assay with MOLT-4 leukemia, in the assay on RXF 393 renal, with A549 NSCLC and in the assay with HCC-2998 colon was greater than 100 µM each time.

With `O=S1c2ccccc2N=C(c2ccc3ccccc3c2)CC1c1ccccc1F` (centres undefined), the TGI with ACHN renal, in the assay on SF-268 CNS, with MOLT-4 leukemia, in the assay on SK-MEL-5 melanoma, in the assay on RXF 393 renal and in the assay with RPMI-8226 leukemia was greater than 100 µM each time. Besides, the TGI in the assay with SN12C renal, in the assay on A549 NSCLC and with HCC-2998 colon was greater than 100 µM in each case.

With `COc1ccc2oc(-c3cc4cc(OC)ccc4o3)cc2c1`, the TGI in the assay with ACHN renal, in the assay with SF-268 CNS, in the assay on MOLT-4 leukemia, in the assay on SK-MEL-5 melanoma, in the assay with RXF 393 renal and in the assay on RPMI-8226 leukemia was greater than 100 µM each time. Besides, the TGI in the assay on SN12C renal, with A549 NSCLC and in the assay with HCC-2998 colon was greater than 100 µM throughout.

On to `Cc1cc(C(=O)N2CCN(C)CC2)c2c(=O)n(-c3ccccc3)c(=O)n(CC(O)CN3CCN(c4ncccn4)CC3)c2n1` (centres undefined), for which the GI50 in the assay with ACHN renal, in the assay with SF-268 CNS, in the assay with HS 578T breast, with MOLT-4 leukemia, with SK-MEL-5 melanoma and in the assay with RPMI-8226 leukemia was greater than 100 µM each time. Besides, the GI50 with SN12C renal and in the assay with HCC-2998 colon was greater than 100 µM in each case. The TGI in the assay on ACHN renal, with SF-268 CNS, in the assay on HS 578T breast, with MOLT-4 leukemia, in the assay with SK-MEL-5 melanoma and in the assay with RPMI-8226 leukemia was greater than 100 µM each time. The TGI with SN12C renal and in the assay with HCC-2998 colon was greater than 100 µM in each case.
